According to US6878742B2, “Heterocyclic sulfonamide inhibitors of beta amyloid production” (Wyeth, priority 2000, dated 2005):
Where “and” joins values, the source holds several entries; their conditions need not be identical. Equal values may be shown once.

Test system: amyloid precursor protein (APP) proteolysis
Test: Repressor Release Assay (RRA)
Type: cell-based
Settings: luciferase activity over diluent control
Procedure, shortened: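 CHO-K1 cells grown in DMEM with 10% fetal bovine serum were transiently co-transfected with pRSVO-luc and APP-lacI constructs via Lipofectamine Plus, plated into opaque 96-well plates, and exposed to diluted compound in duplicate for 36-48 hours at 37° C. LucLite luciferase signal was read on a TopCount and expressed as fold increase in relative light units over Hepes/DMSO diluent control.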

[1] = Conc 20 μg/mL, read-out: APPI Fold Increase
[2] = Conc 10 μg/mL, read-out: APPI Fold Increase

CCCCCC[C@H](CC)[C@@H](CO)NS(=O)(=O)c1ccc(Br)s1 [Example 78B, 5-bromo-N-[(1S,2S)-2-ethyl-1-(hydroxymethyl)octyl]thiophene-2-sulfonamide]
fold induction at 20 µg/mL [1]: 23

CCC(NC)[C@@H](CO)NS(=O)(=O)c1ccc(Cl)s1 (stereo partly drawn) [Example 79, 5-Chloro-N-[(1S)-1-(hydroxymethyl)-2-(methylamino)butyl]thiophene-2-sulfonamide]
fold induction at 20 µg/mL [1]: 1.6

CCNC(C)(CO)CNS(=O)(=O)c1ccc(Cl)s1 (stereo not shown) [Example 80]
APPI Fold Increase (Conc 20 μg/mL): 1.8 fold

CC(NCCO)[C@@H](CO)NS(=O)(=O)c1ccc(Cl)s1 (stereo partly drawn) [Example 81, 5-chloro-N-[(1S)-2-[(2-hydroxyethyl)amino]-1-(hydroxymethyl)propyl]-2-thiophenesulfonamide]
fold induction at 20 µg/mL [1]: 1.5

CCC(NCCO)[C@@H](CO)NS(=O)(=O)c1ccc(Cl)s1 (stereo partly drawn) [Example 82, 5-chloro-N-[(1S)-2-[(2-hydroxyethyl)amino]-1-(hydroxymethyl)butyl]-2-thiophenesulfonamide]
fold induction at 20 µg/mL [1]: 2.2

CCCCCC(NCCO)[C@@H](CO)NS(=O)(=O)c1ccc(Cl)s1 (stereo partly drawn) [Example 83, 5-chloro-N-[(1S)-2-[(2-hydroxyethyl)amino]-1-(hydroxymethyl)heptyl]-2-thiophenesulfonamide]
fold induction at 20 µg/mL [1]: 1.7

CC(NCc1ccccc1)[C@@H](CO)NS(=O)(=O)c1ccc(Cl)s1 (stereo partly drawn) [Example 84, N-[(1S)-2-(benzylamino)-1-(hydroxymethyl)propyl]-5-chloro-2-thiophenesulfonamide]
fold induction at 20 µg/mL [1]: 3.8

CCC(NCc1ccccc1)[C@@H](CO)NS(=O)(=O)c1ccc(Cl)s1 (stereo partly drawn) [Example 85, N-[(1S)-2-(benzylamino)-1-(hydroxymethyl)butyl]-5-chloro-2-thiophenesulfonamide]
fold induction at 20 µg/mL [1]: 8.9

CC(NC1CCCC1)[C@@H](CO)NS(=O)(=O)c1ccc(Cl)s1 (stereo partly drawn) [Example 86, 5-chloro-N-[(1S)-2-(cyclopentylamino)-1-(hydroxymethyl)propyl]-2-thiophenesulfonamide]
fold induction at 20 µg/mL [1]: 20

CC[C@H](C)[C@@H](CO)N(CCOc1ccccc1)S(=O)(=O)c1ccc(Cl)s1 [Example 87, 5-Chloro-N-[(1S,2S)-1-(hydroxymethyl)-2-methylbutyl]-N-(2-phenoxyethyl)thiophene-2-sulfonamide]
fold induction at 20 µg/mL [1]: 3.1

CC[C@H](C)[C@@H](CO)N(Cc1cccc(Cl)c1)S(=O)(=O)c1ccc(Cl)s1 [Example 88, 5-chloro-N-(3-chlorobenzyl)-N-[(1S,2S)-1-(hydroxymethyl)-2-methylbutyl]thiophene-2-sulfonamide]
fold induction at 20 µg/mL [1]: 4.9

O=S(=O)(N[C@H](CO)c1ccccc1)c1ccc(Cl)s1 [Example 89, 5-Chloro-N-[(S)-2-hydroxy-1-phenylethyl]thiophene-2-sulfonamide]
fold induction at 20 µg/mL [1]: 2.3

CC(C)CC(CO)NS(=O)(=O)c1ccc(Cl)s1 (stereo not shown) [Example 90]
APPI Fold Increase (Conc 3 μg/mL): 1.74 fold
APPI Fold Increase (Conc 10 μg/mL): 3.82 fold
APPI Fold Increase (Conc 20 μg/mL): 3.6 fold

CC(C)(CO)NS(=O)(=O)c1ccc(Cl)s1 [Example 92, 5-chloro-N-(2-hydroxy-1,1-dimethylethyl)thiophene-2-sulfonamide]
fold induction at 20 µg/mL [1]: 1.5

CCC(CO)(CO)NS(=O)(=O)c1ccc(Cl)s1 [Example 93, N-[1,1-bis(hydroxymethyl)propyl]-5-chlorothiophene-2-sulfonamide]
fold induction at 20 µg/mL [1]: 2

O=S(=O)(NC1(CO)CCCC1)c1ccc(Cl)s1 [Example 94]
APPI Fold Increase (Conc 10 μg/mL): 2.4 fold

O=S(=O)(N[C@H](CO)CC1CCCCC1)c1ccc(Cl)s1 [Example 95]
APPI Fold Increase (Conc 10 μg/mL): 1.9 fold

O=S(=O)(N[C@H](CO)Cc1ccccc1)c1ccc(Cl)s1 [Example 96, N-[(S)-1-benzyl-2-hydroxyethyl]-5-chlorothiophene-2-sulfonamide]
fold induction at 20 µg/mL [1]: 1.5

CC(C)(C)[C@@H](CO)NS(=O)(=O)c1ccc(Cl)s1 [Example 98]
APPI Fold Increase (Conc 10 μg/mL): 2.43 fold

O=[N+]([O-])c1ccc([C@@H](O)[C@@H](CO)NS(=O)(=O)c2ccc(Cl)s2)cc1 [Example 99, 5-chloro-N-[(R,R)-2-hydroxy-1-(hydroxymethyl)-2-(4-nitrophenyl)ethyl]thiophene-2-sulfonamide]
fold induction at 20 µg/mL [1]: 1.5

CC[C@@H](CO)NS(=O)(=O)c1ccc(Cl)s1 [Example 100, 5-chloro-N-[(S)-1-(hydroxymethyl)propyl]thiophene-2-sulfonamide]
fold induction at 20 µg/mL [1]: 1.5

O=S(=O)(N[C@H](CO)CSCc1ccccc1)c1ccc(Cl)s1 [Example 101, N-[R-2-(benzylthio)-1-(hydroxymethyl)ethyl]-5-chlorothiophene-2-sulfonamide]
fold induction at 20 µg/mL [1]: 2.7

C[C@H](OCc1ccccc1)[C@@H](CO)NS(=O)(=O)c1ccc(Cl)s1 [Example 102, N-[(R,S)-2-(benzyloxy)-1-(hydroxymethyl)propyl]-5-chlorothiophene-2-sulfonamide]
fold induction at 20 µg/mL [1]: 1.6

C[C@@H](O)[C@@H](CO)NS(=O)(=O)c1ccc(Cl)s1 [Example 103, 5-chloro-N-[(R,R)-2-hydroxy-1-(hydroxymethyl)propyl]thiophene-2-sulfonamide]
fold induction at 20 µg/mL [1]: 2.3

O=S(=O)(N[C@H](CO)c1ccccc1)c1ccc(Br)s1 [Example 104, 5-bromo-N-[(S)-2-hydroxy-1-phenylethyl]thiophene-2-sulfonamide]
fold induction at 20 µg/mL [1]: 2.5

CC(C)CC(CO)NS(=O)(=O)c1ccc(Br)s1 (stereo not shown) [Example 105]
APPI Fold Increase (Conc 1 μg/mL): 1.57 fold
APPI Fold Increase (Conc 3 μg/mL): 2.23 fold
APPI Fold Increase (Conc 10 μg/mL): 3.93 fold
APPI Fold Increase (Conc 20 μg/mL): 2.4 fold and 1.5 fold

CC(C)(CO)NS(=O)(=O)c1ccc(Br)s1 [Example 107, 5-bromo-N-(2-hydroxy-1,1-dimethylethyl)thiophene-2-sulfonamide]
fold induction at 20 µg/mL [1]: 1.5

CCC(CO)(CO)NS(=O)(=O)c1ccc(Br)s1 [Example 108, N-[1,1-bis(hydroxymethyl)propyl]-5-bromothiophene-2-sulfonamide]
fold induction at 20 µg/mL [1]: 2

O=S(=O)(NC1(CO)CCCC1)c1ccc(Br)s1 [Example 109]
APPI Fold Increase (Conc 3 μg/mL): 1.8 fold
APPI Fold Increase (Conc 10 μg/mL): 2 fold

O=S(=O)(N[C@H](CO)CC1CCCCC1)c1ccc(Br)s1 [Example 110]
APPI Fold Increase (Conc 10 μg/mL): 1.71 fold
APPI Fold Increase (Conc 20 μg/mL): 2.9 fold and 2.3 fold and 3.6 fold

CSCC[C@@H](CO)NS(=O)(=O)c1ccc(Br)s1 [Example 111, 5-bromo-N-[(S)-1-(hydroxymethyl)-3-(methylthio)propyl]thiophene-2-sulfonamide]
fold induction at 20 µg/mL [1]: 1.8

CC(C)(C)[C@@H](CO)NS(=O)(=O)c1ccc(Br)s1 [Example 113]
APPI Fold Increase (Conc 10 μg/mL): 2.86 fold

O=S(=O)(N[C@H](CO)CSCc1ccccc1)c1ccc(Br)s1 [Example 114, N-[R-2-(benzylthio)-1-(hydroxymethyl)ethyl]-5-bromothiophene-2-sulfonamide]
fold induction at 20 µg/mL [1]: 1.8

Cc1cccc(CSC[C@@H](CO)NS(=O)(=O)c2ccc(Br)s2)c1 [Example 115, 5-bromo-N-(R-2-hydroxy-1-{[(3-methylbenzyl)thio]methyl}ethyl)thiophene-2-sulfonamide]
fold induction at 20 µg/mL [1]: 4.4

O=S(=O)(N[C@H](CO)Cc1ccc(OCc2ccccc2)cc1)c1ccc(Br)s1 [Example 116, N-{(S)-1-[4-(benzyloxy)benzyl]-2-hydroxyethyl}-5-bromothiophene-2-sulfonamide]
fold induction at 20 µg/mL [1]: 2.2

C[C@@H](O)[C@@H](CO)NS(=O)(=O)c1ccc(Br)s1 [Example 117, 5-bromo-N-[(R,R)-2-hydroxy-1-(hydroxymethyl)propyl]thiophene-2-sulfonamide]
fold induction at 20 µg/mL [1]: 2.6

CC[C@H](C)[C@@H](C=O)NS(=O)(=O)c1ccc(Cl)s1 [Example 118, 5-Chloro-N-[(S,S)-1-formyl-2-methylbutyl]thiophene-2 sulfonamide]
fold induction at 20 µg/mL [1]: 4.8

CC[C@H](C)[C@H](NS(=O)(=O)c1ccc(Cl)s1)C(C)O (stereo partly drawn) [Example 119, 5-Chloro-N-[(S,S)-1-(1-hydroxyethyl)-2-methylbutyl]thiophene-2-sulfonamide]
fold induction at 0.3 µg/mL (Conc 0.3 μg/mL, read-out: APPI Fold Increase): 1.54
fold induction at 3 µg/mL (Conc 3 μg/mL, read-out: APPI Fold Increase): 2.49
fold induction at 10 µg/mL [2]: 4.1

C=CC(O)[C@@H](NS(=O)(=O)c1ccc(Cl)s1)[C@@H](C)CC (stereo partly drawn) [Example 127, 5-chloro-N-{(S)-2-hydroxy-1-[(S)-1-methylpropyl]but-3-enyl}thiophene-2-sulfonamide]
fold induction at 10 µg/mL [2]: 4.27

CC[C@H](C)[C@H](NS(=O)(=O)c1ccc(Cl)s1)C(O)c1ccc(F)cc1 (stereo partly drawn) [Example 130, 5-chloro-N-{(S,S)-1-[(4-fluorophenyl)(hydroxy)methyl]-2-methylbutyl}thiophene-2-sulfonamide]
fold induction at 10 µg/mL [2]: 1.85

CC[C@H](C)[C@H](NS(=O)(=O)c1ccc(Cl)s1)C(O)c1ccc(Cl)cc1 (stereo partly drawn) [Example 131, 5-chloro-N-{(S,S)-1-[(4-chlorophenyl)(hydroxy)methyl]-2-methylbutyl}thiophene-2-sulfonamide]
fold induction at 10 µg/mL [2]: 3.64

CC[C@H](C)[C@H](NS(=O)(=O)c1ccc(Cl)s1)C(O)C=C(C)C (stereo partly drawn) [Example 132, 5-chloro-N-{(S)-2-hydroxy-4-methyl-1-[(S)-1-methylpropyl]pent-3-enyl}thiophene-2-sulfonamide]
fold induction at 10 µg/mL [2]: 1.68

CC[C@H](C)[C@H](NS(=O)(=O)c1ccc(Cl)s1)C(O)c1ccc(OC)cc1 (stereo partly drawn) [Example 134, 5-chloro-N-{(S,S)-1-[hydroxy(4-methoxyphenyl)methyl]-2-methylbutyl}thiophene-2-sulfonamide]
fold induction at 10 µg/mL [2]: 2.42
